Data published in patent US5395828A, “Inositol phosphate analogues as calcium-antagonistic substances” (Hoechst Aktiengesellschaft, priority 1991, dated 1995).

System: human platelets
Assay: Calcium release in saponin-permeabilized human platelets (Quin2 fluorescence)
Type: cell-based
Conditions: Platelet, pH 7.4, increase in Quin2-fluorescence, read-out: EC50 (effective concentration), release of Calcium
Experimental: Human platelets were purified in the presence of citrate by differential centrifugation and resuspended to ca 1×10exp9 cells/ml in Tyrode-HEPES-(N-2-hydroxyethyl-piperazine-N'-2 ethane-sulfonic acid)-buffer pH 7.4 containing 0.2% w/v Bovine Serum Albumin and 1 mM EGTA (Ethylene Glycol Bis (β-Aminoethyl Ether)N,N,N',N'-Tetraacidic acid). After 20 min, the platelets were centrifuged again (700×g, 20 min) and resuspended to the same concentration in 4 ml of "assay-buffer" containing:
1.2 mM Potassiumdihydrogenphosphate
25 mM HEPES-buffer, pH as indicated
After a further 30 min, the platelet suspension was diluted 5-fold into assay-buffer containing 2 μM Quin2 (2-[[2-[bis(carboxymethyl)amino]-5-methyl-phenoxy]methyl]-6-methoxy-8-[bis[…]]quinoline) salt as a fluorescence indicator for Calcium. To this suspension Saponin was added to a final concentration of 20 μg/ml to permeabilize the cells. The fluorescence of the suspension was continually monitored with a fluorescence spectrometer until a stable baseline was achieved. At this point, IP3 was added and the resulting release of Calcium measured as an increase in the intensity of the Quin2-fluorescence. An EC50 (effective concentration) value of 2×10exp-7M was obtained at pH 7.4. IP2-5-MP itself had no effect on release of Calcium. […]

- EC50: 200 nM
SMILES: O=P(O)(O)O[C@@H]1[C@H](O)[C@H](O)[C@@H](OP(=O)(O)O)[C@H](OP(=O)(O)O)[C@H]1O [IP3, d-myo inositol(1.4.5)trisphosphate]
